How the values were obtained:
Format in all cases: cell-based, mouse
cAMP in PN cells = test: Cyclic AMP enzyme immunoassay in cells; conditions: for increase of cAMP activity in PN cells: treating PN cells with forskolin or IBMX
Protocol: FIG. 4A, FIG. 4B, FIG. 4C, FIG. 4D, and FIG. 4E show (FIG. 4A-FIG. 4B) cAMP levels are reduced by VX-809. (FIG. 4A) cAMP levels in mouse tissue were reduced by VX-809. The kidney samples (n=6) analyzed were taken from those depicted in FIG. 1. (FIG. 4B) Confluent PN and PH cells were treated with VX-809 (10 μM) or DMSO for 16 h and then treated with forskolin (100 μM) for 30 min before the cells were harvested for the assay. Columns represent means±SEM. Statistical analysis was performed using a two-tailed Student's t-test. Each set of data is from three individual wells; Note that resting cAMP is greater in PN vs PH cells as previously shown (25). Also note that forskolin caused a large increase in cAMP. A smaller increase occurred with IBMX. However, the increase induced by forskolin alone was similar to that by IBMX plus forskolin. […] (FIG. 4C, FIG. 4D, and FIG. 4E) Adenylyl cyclase expression. (FIG. 4C) Western blot showing the expression of adenylyl cyclase (AC) 6 and AC3 in treated and control PN cells. (FIG. 4D-FIG. 4E) Columns represent means±SEM of the AC3 and AC6 expression. The data were analyzed by non-parametric t-test. The experiment was repeated four times. For all graphs, *P<0.05, **P<0.01, and ***P<0.001;
It has been shown previously in both animal and cell culture models of ADPKD that cells lacking functional PC1 have elevated cAMP levels when compared to normal (24). To assess the effect of CFTR correctors, cAMP activity was measured in PC1 conditional knockout mouse kidneys and in PN cells that were either left untreated or treated with VX-809. […] Cells were treated with forskolin, which increased cAMP levels drastically (FIG. 4B). […] Treating PN cells with forskolin or IBMX (FIG. 4B) increased the cAMP activity by ˜10-fold.
Confluent cells were treated with VX-809 (10 μM) or DMSO for 16 h before being harvested for assay. Cyclic AMP levels were measured with a direct cAMP Enzyme Immunoassay Kit (Sigma, # CA200) according to the manufacturer's protocol. The results are expressed as pmole/ml. Statistical analysis was performed using a two-tailed Student's t-test.

Hsp70 = test: Cycloheximide chase, disappearance of Hsp70 in PN cells; conditions: cycloheximide 25 μM, 8 h
Protocol: (§1) FIG. 9A, FIG. 9B, FIG. 9C, FIG. 9D, FIG. 9E, FIG. 9F, FIG. 9G, and FIG. 9H show Hsp27, HSp70, and Hsp90 expression in PN cells treated with VX-809 and/or cycloheximide. (A) Pkd1 null (PN) cells were treated with VX-809 (10 μM) and/or with cycloheximide (25 μM) for indicated time points before being harvested for the assay. (FIG. 9A) Western blot showing expression of Hsp27, Hsp70, and Hsp90 in VX-809-(16 h), cycloheximide-treated, or control PN cells. ((FIG. 9B. (FIG. 9C, and (FIG. 9D) Columns represent averages±standard errors of Hsp27, Hsp70, and Hsp90 expression in cells treated with VX-809 and/or cycloheximide. ((FIG. 9E) Western blot showing expression of Hsp27, Hsp70, and Hsp90 in PN cells treated with VX-809+cycloheximide or control PN cells. ((FIG. 9F, (FIG. 9G, and (FIG. 9H) Columns represent averages±standard errors of Hsp27, Hsp70, and Hsp90 expression in cells treated only with cycloheximide or in control PN cells. Data were analyzed by non-parametric t-test. The experiments were repeated 3-5 times. *P<0.05, **P<0.01;
(§2) To gain more insight into the mechanism whereby VX-809 alters Hsp protein levels, translation was inhibited by using cycloheximide (35) and the disappearance of the three Hsps was monitored. […] Hsp 90 was reduced by approximately 25%, and Hsp27 was unchanged.

Hsp90 = test: Cycloheximide chase, disappearance of Hsp90 in PN cells; conditions: cycloheximide 25 μM, 8 h
Protocol: as §1, §2

Hsp27 = test: Cycloheximide chase, disappearance of Hsp27 in PN cells; conditions: cycloheximide 25 μM, 8 h
Protocol: as §1, §2

| Compound | increase of cAMP activity in PN cells (cAMP in PN cells) [fold] | forskolin elevates cAMP activity (cAMP in PN cells; as restated at the end of Example 4) [fold] | steady-state level of Hsp70 after cycloheximide alone (Hsp70) | steady-state level of Hsp90 after cycloheximide alone (Hsp90) | steady-state level of Hsp27 after cycloheximide alone (Hsp27) |
| --- | --- | --- | --- | --- | --- |
| CC(C)Cn1c(=O)n(C)c(=O)c2[nH]cnc21 [IBMX, 3-isobutyl-1-methylxanthine] | ~10 |  |  |  |  |
| C=C[C@@]1(C)CC(=O)[C@]2(O)[C@@]3(C)[C@@H](O)CCC(C)(C)[C@@H]3[C@H](O)[C@H](OC(C)=O)[C@@]2(C)O1 [forskolin] | ~10 | ~500 |  |  |  |
| C[C@@H]1C[C@@H]([C@H](O)CC2CC(=O)NC(=O)C2)C(=O)[C@@H](C)C1 [cycloheximide] |  |  | unchanged over the 8 h | unchanged over the 8 h | unchanged over the 8 h |

— patent US20200289482A1, “CYSTIC FIBROSIS TRANSMEMBRANE CONDUCTANCE REGULATOR MODULATORS FOR TREATING AUTOSOMAL DOMINANT POLYCYSTIC KIDNEY DISEASE” (The Johns Hopkins University, priority 2017, published 2020)
